Measured values as given in article PMC4627284, “High-throughput simultaneous screen and counterscreen identifies homoharringtonine as synthetic lethal with von Hippel-Lindau loss in renal cell carcinoma” (Oncotarget, 2015).
Where two headings read alike, the source gives them in different places.

Key:
[1] = design: method as in PMID 3598625; conditions: cited from earlier work
[2] = system: advanced ccRCC; design: method as in PMID 9157078; conditions: 14 patients with advanced ccRCC, 1996; cited from earlier work
[3] = Pharmacokinetic analysis after a single dose by oral gavage; type: in vivo, NOD/SCID mice; conditions: for AUC(0-inf) / Cmax / Tmax / half-life / Vd/F: female, NOD/SCID, mouse, plasma; for half-life: read-out: Terminal t½ (converted); for Vd/F: read-out: Vz/F
Description: We evaluated PK parameters after administration of a single dose of HHT by oral gavage to mice of 0.4 mg/kg, 0.7 mg/kg and 2 mg/kg (Table 1). […] Treatment with 0.4 mg/kg HTT by gavage most closely approximated human exposures. […] Given our in vitro studies, we sought to sustain 50 nM drug levels and mice were dosed with 0.7 mg/kg HHT given by gavage twice daily.
Female NOD/SCID mice (6-7 weeks) were administered homoharringtonine (HHT) by oral gavage. DMSO was used to wet the compound which was subsequently diluted in normal saline (pH 7.2) prior to administration (final DMSO < 5%). Animals were sacrificed in duplicate by inhalation overdose of CO2 at varying times post-dose and bled by cardiac puncture using acidified citrate dextrose (ACD) as the anticoagulant. Plasma was isolated after centrifugation at 9,600 x g for 10 minutes at 4°C. Protein was precipitated from 100 μl of plasma with 100 μl of acetonitrile containing 100 ng/ml of n-benzylbenzamide, which was used as an internal standard (IS), and 0.2% formic acid. After extensive vortexing, samples were incubated for 10 minutes at RT and spun twice at 16,100 x g for 5 minutes. The supernatant was evaluated by LC-MS/MS using a Shimadzu (Columbia, MD) Prominence LC coupled to an AB Sciex (Framingham, MA) 3200 Qtrap mass spectrometer. Extraction conditions were optimized prior to PK analysis for efficient and reproducible recovery over a three log range of concentrations. Analytical standards and quality control samples were prepared in a similar fashion by spiking commercial CD-1 mouse plasma (Bioreclamation, Westbury, NY) with known quantities of HHT. Chromatography conditions were as follows: an Agilent (Santa Clara, CA) C18 XDB, 5 micron packing, 50 × 4.6 mm size column was used for reverse phase chromatography. Buffer A consisted of dH2O + 0.1% formic acid and Buffer B consisted of methanol + 0.1% formic acid. Gradient conditions utilized were: 0.01-1.0 min 3% B, 1.0-1.5 min gradient to 100% B,1.5-3.0 min 100% B, 3.0-3.1 min gradient to 3% B, 3.1-4.1 min 3% B. HHT was detected as the 546.3 to 298.3 transition, and the IS (n-benzylbenzamide) as the 212.1 to 91.1 transition. Data were analyzed using Analyst software (AB Sciex.) A value 3x above the signal obtained in the blank plasma was designated as the limit of detection (LOD). The limit of quantitation (LOQ) was defined as the lowest concentration on the standard curve at which back calculation yielded a concentration within 20% of the theoretical value and above the LOD signal. The LOQ for HHT was 0.5 ng/ml. Pharmacokinetic properties were evaluated using the noncompartmental analysis tool in WinNonlin (Certara, Corp., St. Louis, MO). Sparse sampling was used for data analysis. Terminal half-life was calculated as the ln(2)/λz where λz is a first order rate constant associated with the terminal (log-linear) portion of the curve. It is estimated by linear regression of time vs. log concentration by the software for three or more of the final nonzero data points. Tmax (time to maximal drug concentration) and Cmax (maximal drug concentration) were determined by visual inspection. Area under the concentration time curve (AUCinf) from time 0 to infinity was determined by linear trapezoidal analysis. Apparent Volume of Distribution (Vz/F) is based on the terminal phase and is calculated as Dose/λz*AUCinf while Apparent Clearance (CL/F) is calculated as Dose/AUCinf. Calculation of Absolute Vz and CL requires knowledge of oral bioavailability (F) which is calculated as AUCoral/AUCiv X Dose iv/Doseoral but was not determined here because an IV PK was not performed.

[4] = cited from earlier work
[5] = Toxicity in tumorgraft-bearing mice (mouse weight, signs); type: in vivo; conditions: 0.7 mg/kg by gavage twice daily, XP26 and XP144 cohorts
Text: C. and D. Average weight of XP26 and XP144 cohort mice in grams (g) taken at the indicated days prior to and over the course of the indicated drug treatment. Day 0 represents the first day of treatment.
Tumorgrafts were generated and propagated as described previously, with tumor samples implanted subcutaneously into the flank of the mouse for drug trials. Briefly, 4- to 8-week-old NOD/SCID mice were anesthetized with isoflurane and implanted subcutaneously with 64 mm^3 tumor fragments (cohorts 2-20). Once tumors reached an average of at least ~250 mm^3, drug treatment was begun. The mice were treated with vehicle, 0.7 mg/kg homoharringtonine (HHT) via gavage twice daily, or 0.5 mg/kg rapamycin given by IP injection once every 48 hours. Tumor size (volume) was measured twice weekly and was obtained by multiplying tumor length, width, and depth using calipers. To assess toxicity, mouse weight was monitored once weekly.

SMILES: COC(=O)C[C@](O)(CCCC(C)(C)O)C(=O)O[C@@H]1C(OC)=C[C@]23CCCN2CCc2cc4c(cc2[C@H]13)OCO4 [HHT, homoharringtonine]
- blood-brain barrier penetration [1]: penetrates the blood-brain barrier
- outcome of phase II trial [2]: halted due to toxicity
- Cl/F ([3]; 0.4 mg/kg oral gavage, mice): 32.7 mL/h
- Cl/F ([3]; 0.7 mg/kg oral gavage, mice): 30.5 mL/h
- time HHT concentrations above 50 nM were sustained ([3]; 0.7 mg/kg oral gavage, mice, 50 nM equivalent to 27.3 ng/mL): ~ 6 hours
- Cl/F ([3]; 2 mg/kg oral gavage, mice): 46.6 mL/h
- AUC(0-inf) ([3]; 0.4 mg/kg oral gavage, mice): 251 ng·h/mL
- Cmax ([3]; 0.4 mg/kg oral gavage, mice): 28.8 ng/mL
- Tmax ([3]; 0.4 mg/kg oral gavage, mice): 0.17 h
- half-life ([3]; 0.4 mg/kg oral gavage, mice): 1.86 h
- Vd/F ([3]; 0.4 mg/kg oral gavage, mice): 0.0877 L
- AUC(0-inf) ([3]; 0.7 mg/kg oral gavage, mice): 440 ng·h/mL
- Cmax ([3]; 0.7 mg/kg oral gavage, mice): 57.8 ng/mL
- Tmax ([3]; 0.7 mg/kg oral gavage, mice): 0.17 h
- half-life ([3]; 0.7 mg/kg oral gavage, mice): 2.8 h
- Vd/F ([3]; 0.7 mg/kg oral gavage, mice): 0.123 L
- AUC(0-inf) ([3]; 2 mg/kg oral gavage, mice): 905 ng·h/mL
- Cmax ([3]; 2 mg/kg oral gavage, mice): 97.2 ng/mL
- Tmax ([3]; 2 mg/kg oral gavage, mice): 1.5 h
- half-life ([3]; 2 mg/kg oral gavage, mice): 6.74 h
- Vd/F ([3]; 2 mg/kg oral gavage, mice): 0.453 L
- time at which Cmax was reached ([3]; two lower doses (0.4 and 0.7 mg/kg), first time point sampled): 10 min
- half-life in humans ([4]; dosed subcutaneously): 7 h
- plasma concentration reached in patients ([4]; treatment of CML): ~ 50 nM
- body weight of treated mice [5]: maintained similar body weight compared to controls
